# Counter-ions that a name gives are not always drawn.
# What was measured:
# [1] = tested on: SF-539 cells; experiment: Apoptosis assay (Cell Death Detection ELISA), SF-539; assay type: cell-based, human; settings: 48 hours
# Procedure: (§1) Apoptosis Assay—Apoptosis was analyzed using the Cell Death Detection ELISA (Roche, Indianapolis, Ind.) measuring cytoplasmic histone-associated mono- and oligonucleosome DNA fragments. Procedures were carried out according to the manufacturers protocol. Briefly, 1×10^5 cells were plated in 60 mm dishes and treated with various doses of ARA-211 or vehicle for 48 hours. Cells were lysed with the provided lysis buffer and lysate was incubated on the ELISA plate for 1 hour to capture the histone associated DNA indicative of apoptotic cells. Anti-DNA peroxidase conjugated antibody was added to detect the cleaved DNA and the microplate was washed and developed with ABTS substrate which was quantitated by microplate reader at 405 nm.
# [2] = tested on: P-p38; experiment: P-p38 levels (Western blotting), MDA-MB-231; assay type: cell-based, human
# [3] = tested on: MDA-MB-231 cells; experiment: Alamar Blue proliferation assay, MDA-MB-231; assay type: cell-based, human; settings: MDA-MB-231 with CA-Mek; 10 μM, 48 hours
# Procedure: Cell Lines and Transfections—All cell lines used were obtained from American Type Tissue Collection (ATCC), (Manassas, Va.), or from the DCTD Tumor Repository, (Frederick, Md.). Propagation was carried out according to ATCC protocols. Propagation media was obtained from Invitrogen Corporation (Carlsbad, Calif.). DNA transfections were carried out using TransIT-LT1 transfection reagent (Takara Mirus, Madison, Wis.) according to the manufacturer's protocol. Briefly, 4×10^5 MDA-MB-231 cells were grown to approximately 70% confluency in medium supplemented with 10% FBS (Atlanta Biologicals, Atlanta, Ga.) in the absence of antibiotics. For transfection, LT1 was pre-incubated in 200 μl per transfection in Opti-MEM (Invitrogen) for 20 minutes prior to addition of plasmid. […]
# Alamar Blue proliferation assay—For proliferation assays using exogenous constitutively activated MEK or the B2AR antagonist ICI-118.551, Alamar Blue metabolism assay used to determine cell viability according to the manufacturers protocol (Biosource, Camarillo, Calif.). […] Media/Alamar Blue was removed from the cells and aliquoted into 96 well plates (100 μl per well) and fluorescence read on a Wallac Victor 2 plate reader at excitation 540 nm, and emission 615 nm.
# [4] = tested on: ACHN cells; experiment: Anchorage-independent growth (soft agar assay), ACHN; assay type: cell-based, human
# Procedure: (§2) Soft Agar Assay—Anchorage independent growth assays were performed as previously described (Lerner et al., 1997). Briefly, agar was diluted to 0.3% in propagation media containing 20,000 cells and either vehicle or ARA-211 and 1 ml of cell/agar mixture plated on top of 2 ml of a 0.6% layer of agar in medium alone. Cells were grown for three to four weeks at 37° C., 10% Co2 and were fed weekly with 100 μl per well of media/treatment. Quantification of colonies was done using a GS-700 scanning densitometer.
# [5] = tested on: HCT-116 cells; experiment: Total cellular cAMP measurement, HCT-116; assay type: cell-based, human
# Procedure: (§3) Total cellular cAMP measurement—The measurement of total cellular cAMP was done using a cAMP Biotrak ™ Enzymeimmunoassay (EIA) system (Amersham Biosciences, Piscataway, N.J.) according to the manufacturer's protocol. Briefly, 2000 cells were plated into each well of a 96 well plate. The next day cells were treated with increasing concentrations of ARA-211 or with vehicle for one hour. Alternatively, MDA-MB-231 cells were pre-treated with antagonists to the α1 (Prazosin, Sigma), α2 (Yohimbine, Sigma), β1 (Metoprolol, Sigma), and β2 (ICI 118.551, Sigma) adrenergic receptors at 100 nM for 15 minutes followed by treatment with 10 μM ARA-211 for 45 minutes. Cells were then lysed directly in the wells using the supplied lysis buffer. The lysate was transferred to a 96-well cAMP ELISA plate, and results were quantified using a Wallac Victor 2 plate reader.
# [6] = tested on: A-549 cells; experiment: Anchorage-independent growth (soft agar assay), A-549; assay type: cell-based, human; settings: n = 6
# Procedure: as §2
# [7] = tested on: A-549 cells; experiment: Total cellular cAMP measurement, A-549; assay type: cell-based, human
# Procedure: as §3
# [8] = tested on: ACHN cells; experiment: Apoptosis assay (Cell Death Detection ELISA), ACHN; assay type: cell-based, human; settings: 48 hours
# Procedure: as §1
# [9] = tested on: A-549 cells; experiment: Nude mouse xenograft model, A-549 (s.c.); assay type: in vivo, nude mice; settings: A-549 xenograft; i.p. 75 mpk/day
# From the text: Anti-tumor activity in nude mouse xenograft model—Female athymic nude (nu/nu) mice, 5-6 weeks old, were purchased from Charles River (Wilmington, Mass.) and allowed to acclimate in the animal facility for one week. After harvesting, A-549, SNB-19, ACHN, and HCT-116 cells were, resuspended in sterile PBS, and injected s.c. into the right and left flanks (10×10^6 cells per flank) of the mice as previously described (Sun et al., 2005). For MDA-MB-231, cells were harvested and resuspended in PBS (10×10^6 cells per 50 μl) and an equal volume of Matrigel (BD Biosciences, San Jose, Calif.). 100 μl of MDA-MB-231 cells in PBS/Matrigel were injected s.c. into the mammary fat pads between the 2nd and 3rd nipples on each side of the mice. Once the tumors reached approximately 200-300 mm^3 the mice were randomized and treated i.p. with 0.1 ml vehicle (PBS) or ARA-211. Each treatment group consisted of five mice (2 tumors per mouse, a total of 10 tumors). The tumor volumes were determined by measuring the length (l) and width (w) and calculating the volume (V=w^2l/2). Statistical significance between the control and treated animals was determined using a student's t test.
# [10] = tested on: A-549 cells; experiment: Anchorage-dependent growth (MTT assay), A-549; assay type: cell-based, human
# Procedure: (§4) MTT Assay—2000 cells per well were plated into 96 well tissue culture plates, and the cells were allowed to attach overnight at 37° C. with 10% CO2. Cells were then treated with increasing concentrations of ARA-211, or vehicle (DMSO) and incubated for four days. At that time treatment medium was removed and replaced with 100 μl of lmg/ml MTT (Sigma-Aldrich, St. Louis, Mo.) in media and incubated at 37° C., 10% CO2 for 3 hours. After 3 hours the MTT media was removed and replaced with 100 μl/well of DMSO, rocked at room temperature for 5 minutes, then absorbance read at 540 nm on a micro-plate reader.
# [11] = tested on: MDA-MB-231 cells; experiment: Anchorage-independent growth (soft agar assay), MDA-MB-231; assay type: cell-based, human
# Procedure: as §2
# [12] = tested on: SNB-19 cells; experiment: Anchorage-dependent growth (MTT assay), SNB-19; assay type: cell-based, human; settings: n = 3
# Procedure: as §4
structure (smiles),measurement,setting,value
"CC(C)(C)NCC(O)c1ccc(O)c(CO)n1 (stereo not drawn) [ARA-211, 2-hydroxymethyl-3-hydroxy-6-(1-hydroxy-2-tert-butylaminoethyl) pyridine, dihydrochloride]",Apoptosis (% Induction),[1],9 ± 1.7%
same,P-p38 levels,[2],not
same,inhibition of tumor growth in cells ectopically expressing constitutively activated Mek-1,[3],resistant
same,Anchorage Independent Growth (% Inhibition),[4],97.9 ± 1.2%
same,cAMP (Fold Induction),[5],1.1 ± 0.1 Fold
same,Anchorage Independent Growth (% Inhibition),[6],0 (n = 6) %
same,cAMP (Fold Induction),[7],1.3 ± 0.3 Fold
same,Apoptosis (% Induction),[8],11.4 ± 1.9%
same,growth of tumors,[9],is not affected
same,Anchorage Dependent Growth (% Inhibition),[10],9.6 ± 6.1%
same,Anchorage Independent Growth (% Inhibition),[11],82.7 ± 7.9%
same,Anchorage Dependent Growth (% Inhibition),[12],0 (n = 3) %
